The text below walks through data of BindingDB's records for doi:10.7270/Q2H70D5W (University of Pittsburgh, 2007).

Molecules are shown by their SMILES.

The target of this test is Gag-Pol polyprotein (Human immunodeficiency virus type 1 group M subtype B (isolate HXB2), UniProt P04585). The test is described as follows: concentration-response of HIV-1 RNase H blockers – biochemical, probe assessment, dose response (AID 652). The note with it: pH 8; 23 °C.
Consider `O=C(Nc1ccc2nc(-c3ccco3)c(-c3ccco3)nc2c1)N1CCCCCC1`, for which the IC50 was 0.953 µM.
The value for `CCCCCC#CCC#CCC#CCC#CCCCC(=O)O` was 0.794 µM.
In turn, `Cc1ccc2c(c1C)NC(C(=O)O)C1CC=CC21` (stereo unspecified) registered an IC50 of 1.03 µM.
For `CCCc1nc2ccccc2c(=O)n1N=Cc1ccc(O)c(O)c1`, the IC50 was 0.767 µM.
The value for `N#Cc1cc(-c2ccccc2)nn1-c1ccccc1` was 0.876 µM; that for `c1ccc(-c2ccc(C3=Nc4ncnn4C(c4ccco4)C3)cc2)cc1` (stereo unspecified) was 14.5 µM; that for `O=C(CSc1nnc[nH]1)c1ccccc1` was 5.52 µM.
For `Cc1cc(C)n2c(S)nnc2n1` the value was 8.1 µM; for `CCCCCn1c(SCCCC)nc2c1c(=O)[nH]c(=O)n2C`, 2.48 µM.
For `Cc1sc(-n2c(C)cc(C=Nn3cnnc3)c2C)c(C#N)c1C` the value was 2.22 µM.
Regarding `COCCn1c(-c2ccc(-c3ccccc3Cl)o2)nc2c1c(=O)[nH]c(=O)n2CC(C)C`, the midpoint of inhibition, the IC50, lay at 4.55 µM.
Compound `c1ccc2[nH]c(SN3CCOCC3)nc2c1` yielded an IC50 of 12.5 µM.
The value for `CC(C)c1ccc2oc(-c3ccc(NC(=O)c4nnc[nH]4)cc3)nc2c1` was 5.64 µM.
The compound `CN1CSC2=C(C#N)C(c3cccc(OCc4ccccc4)c3)CC(=O)N2C1` (stereo unspecified) showed an IC50 of 10.6 µM.
For the compound `C=CCOc1ccc(CC2C(=O)N(C)C(=O)N(C)C2=O)cc1` [1,3-dimethyl-5-[(4-prop-2-enoxyphenyl)methyl]-1,3-diazinane-2,4,6-trione], half-maximal inhibition (IC50) was put at 2.61 µM.
`CCn1c(SCC(=O)c2ccc(O)c(O)c2)nnc1-c1ccccc1OC` [1-(3,4-dihydroxyphenyl)-2-[[4-ethyl-5-(2-methoxyphenyl)-1,2,4-triazol-3-yl]sulfanyl]ethanone] returned an IC50 of 2.36 µM. This IC50 and that of the compound before are within 1.5-fold of each other.
`C=CCn1c(SCC(=O)c2ccc(O)c(O)c2)nnc1-c1ccccc1OC` [1-(3,4-dihydroxyphenyl)-2-[[5-(2-methoxyphenyl)-4-prop-2-enyl-1,2,4-triazol-3-yl]sulfanyl]ethanone] yielded an IC50 of 2.57 µM.
The compound `CCC1CCCCN1S(=O)(=O)c1ccc(S(=O)(=O)N2CCN(S(=O)(=O)CC)CC2)cc1` (stereo unspecified) [1-Ethanesulfonyl-4-[4-(2-ethyl-piperidine-1-sulfonyl)-benzenesulfonyl]-piperazine] showed an IC50 of 12.3 µM. This IC50 is about 4.8-fold higher than that of the compound before.
The value for `CC(C)c1nnc(NC(=O)c2c(O)n3c4c(cccc4c2=O)CCC3)s1` [1-Hydroxy-3-oxo-6,7-dihydro-3H,5H-pyrido[3,2,1-ij]quinoline-2-carboxylic acid (5-isopropyl-[1,3,4]thiadiazol-2-yl)-amide] was 14.9 µM; that for `CCOC(=O)C1CCCN(C(=O)Cn2sc3nc(C)cc(C)c3c2=O)C1` (stereo unspecified) [1-[2-(3-keto-4,6-dimethyl-isothiazolo[5,4-b]pyridin-2-yl)acetyl]nipecotic acid ethyl ester] was 9.03 µM; that for `c1ccc(Cc2nn3c(Cn4cnc5ccccc54)nnc3s2)cc1` [1-[(6-benzyl[1,2,4]triazolo[3,4-b][1,3,4]thiadiazol-3-yl)methyl]-1H-benzimidazole] was 2.2 µM.
For `O=S(=O)(c1ccc(S(=O)(=O)N2CCN(C/C=C/c3ccccc3)CC2)cc1)N1CCCC1` [1-[(E)-3-phenylprop-2-enyl]-4-(4-pyrrolidin-1-ylsulfonylphenyl)sulfonyl-piperazine] the value was 12.2 µM; for `C=CCn1c(=O)c(C(=O)Nc2nnc(C)s2)c(O)c2ccccc21` [1-allyl-2-hydroxy-4-keto-N-(5-methyl-1,3,4-thiadiazol-2-yl)quinoline-3-carboxamide], 16.8 µM; for `CCCCCn1c(=O)c(C(=O)NCc2ccncc2)c(O)c2ccccc21` [1-amyl-2-hydroxy-4-keto-N-(4-pyridylmethyl)quinoline-3-carboxamide], 7.42 µM.
The compound `c1ccc2c(c1)nnn2Cc1nnc2sc(-c3ccc4c(c3)OCCO4)nn12` [1-{[6-(2,3-dihydro-1,4-benzodioxin-6-yl)[1,2,4]triazolo[3,4-b][1,3,4]thiadiazol-3-yl]methyl}-1H-1,2,3-benzotriazole] had an IC50 of 1.69 µM.
As for `c1cncc(-c2nn3c(Cn4cnc5ccccc54)nnc3s2)c1` [1-{[6-(3-pyridinyl)[1,2,4]triazolo[3,4-b][1,3,4]thiadiazol-3-yl]methyl}-1H-benzimidazole], 0.621 µM corresponded to half-maximal inhibition (IC50).
For `O=C(Nc1ccc(N2CCOCC2)cc1)c1ccc2nc(-c3ccco3)c(-c3ccco3)nc2c1` [2,3-bis(2-furanyl)-N-[4-(4-morpholinyl)phenyl]-6-quinoxalinecarboxamide] the value was 22.6 µM.
The value for `Cc1nc(C)c(C(=O)Nc2nc3c(C)cccc3s2)o1` [2,4-dimethyl-N-(4-methyl-1,3-benzothiazol-2-yl)-1,3-oxazole-5-carboxamide] was 1.49 µM; that for `CCOc1cc(C2C(C#N)C(=N)SC(=N)C2C#N)ccc1OCCN1CCOCC1` (stereo unspecified) [2,6-bis(azanyl)-4-[3-ethoxy-4-(2-morpholin-4-ylethoxy)phenyl]-4H-thiopyran-3,5-dicarbonitrile] was 31.5 µM.
The value for `N#CC1C(=N)SC(=N)C(C#N)C1c1ccnc2ccccc12` (stereo unspecified) [2,6-bis(azanyl)-4-quinolin-4-yl-4H-thiopyran-3,5-dicarbonitrile] was 13.7 µM; that for `CCCc1nnc(NC(=O)CN2C(=O)c3ccccc3S2(=O)=O)s1` [2-(1,1-dioxido-3-oxo-1,2-benzisothiazol-2(3H)-yl)-N-(5-propyl-1,3,4-thiadiazol-2-yl)acetamide] was 3.23 µM; that for `O=C(NCc1ccco1)c1cccnc1-c1nc2ccccc2s1` [2-(1,3-benzothiazol-2-yl)-N-(2-furanylmethyl)-3-pyridinecarboxamide] was 3.26 µM.
`Cc1nn2c(-c3cccc(NC(=O)CSc4nc5ccccc5o4)c3)nnc2c2ccccc12` [2-(1,3-benzoxazol-2-ylsulfanyl)-N-[3-(6-methyl-[1,2,4]triazolo[3,4-a]phthalazin-3-yl)phenyl]acetamide] registered an IC50 of 3.71 µM.
Take `CCOc1ccc(-n2c(=O)c3c4c(sc3n(CC(=O)NCc3ccco3)c2=O)CCC4)cc1` [2-(1,3-diketo-2-p-phenetyl-7,8-dihydro-6H-cyclopenta[2,3]thieno[2,4-b]pyrimidin-4-yl)-N-(2-furfuryl)acetamide]: half-maximal inhibition (IC50) was put at 22.4 µM.
For `O=C1CC(c2ccccc2)Cc2nc(N3CCc4ccccc43)ncc21` (stereo unspecified) [2-(2,3-dihydroindol-1-yl)-7-phenyl-7,8-dihydro-6H-quinazolin-5-one] the value was 5.87 µM; for `Cc1cccc(OCC(=O)Nc2cccc(-c3nnc(-c4ccccc4)o3)c2)c1C` [2-(2,3-dimethylphenoxy)-N-[3-(5-phenyl-1,3,4-oxadiazol-2-yl)phenyl]acetamide], 3.92 µM.
The value for `O=c1c(O)c(-c2ccc(O)cc2O)oc2cc(O)cc(O)c12` [2-(2,4-dihydroxyphenyl)-3,5,7-trihydroxychromen-4-one] was 2.11 µM; that for `Cc1cc(NC(=O)CSc2nc(C3CC3)nc3sc4c(c23)CCC(C)C4)no1` (stereo unspecified) [2-(2-Cyclopropyl-7-methyl-5,6,7,8-tetrahydro-benzo[4,5]thieno[2,3-d]pyrimidin-4-ylsulfanyl)-N-(5-methyl-isoxazol-3-yl)-acetamide] was 5.41 µM; that for `O=C(Cn1c(=O)oc2cc(S(=O)(=O)N3CCCC3)ccc21)NC1CCCc2ccccc21` (stereo unspecified) [2-(2-keto-6-pyrrolidinosulfonyl-1,3-benzoxazol-3-yl)-N-tetralin-1-yl-acetamide] was 19.8 µM.
`COCCSc1ccccc1C(=O)Nc1cc(C)on1` [2-(2-methoxyethylsulfanyl)-N-(5-methyl-1,2-oxazol-3-yl)benzamide]: the IC50 amounted to 10.8 µM.
Turning to `O=c1c2ccccc2sn1-c1cc(S(=O)(=O)N2CCOCC2)ccc1N1CCOCC1` [2-(2-morpholin-4-yl-5-morpholin-4-ylsulfonyl-phenyl)-1,2-benzothiazol-3-one], it took 0.579 µM to reach half-maximal inhibition (IC50).
The compound `Cc1cc(C)cc(OCC(=O)Nc2nonc2NC(=O)COc2cc(C)cc(C)c2)c1` [2-(3,5-dimethylphenoxy)-N-[4-[2-(3,5-dimethylphenoxy)ethanoylamino]-1,2,5-oxadiazol-3-yl]ethanamide] showed an IC50 of 1.89 µM.
For `COC(=O)c1sc(N2C(=O)c3oc4ccccc4c(=O)c3C2c2cccs2)nc1C` (stereo unspecified) [2-(3,9-dioxo-1-thiophen-2-yl-1H-[1]benzopyrano[2,3-c]pyrrol-2-yl)-4-methyl-5-thiazolecarboxylic acid methyl ester] the value was 5.25 µM; for `Cc1cccc(NC(=O)Cn2c(C)c(C#N)c3ccccc32)c1C` [2-(3-Cyano-2-methyl-indol-1-yl)-N-(2,3-dimethyl-phenyl)-acetamide], 29 µM.
For `Cc1cc(C)c2c(=O)n(CC(=O)NCCCN3CCOCC3)sc2n1` [2-(3-keto-4,6-dimethyl-isothiazolo[5,4-b]pyridin-2-yl)-N-(3-morpholinopropyl)acetamide] the value was 9.4 µM; for `O=C(COc1ccc(Br)cc1)Nc1ccc(-c2nnc(-c3ccco3)o2)cc1` [2-(4-bromanylphenoxy)-N-[4-[5-(furan-2-yl)-1,3,4-oxadiazol-2-yl]phenyl]ethanamide], 6.33 µM.
The value for `COc1ccc(CC(=O)Nc2ccc(-c3noc(-c4cccc(OC)c4)n3)cc2)cc1` [2-(4-methoxyphenyl)-N-[4-[5-(3-methoxyphenyl)-1,2,4-oxadiazol-3-yl]phenyl]acetamide] was 3.07 µM.
In the case of `Cc1ccnc(-n2sc3ccccc3c2=O)n1` [2-(4-methyl-2-pyrimidinyl)-1,2-benzothiazol-3-one], the IC50 was found to be 1.17 µM.
The value for `Cc1ccc(-n2sc3ccccc3c2=O)cc1S(=O)(=O)N1CCCCC1` [2-(4-methyl-3-piperidin-1-ylsulfonyl-phenyl)-1,2-benzothiazol-3-one] was 0.164 µM; that for `Cc1sc2nc(SCC(=O)NCc3ccco3)n(CCc3ccccc3)c(=O)c2c1C` [2-(5,6-Dimethyl-4-oxo-3-phenethyl-3,4-dihydro-thieno[2,3-d]pyrimidin-2-ylsulfanyl)-N-furan-2-ylmethyl-acetamide] was 3.86 µM.
`C=CCn1c(SCC(=O)NC(=O)NCc2ccco2)nc2sc(C)c(C)c2c1=O` [2-(5,6-dimethyl-4-oxidanylidene-3-prop-2-enyl-thieno[2,3-d]pyrimidin-2-yl)sulfanyl-N-(furan-2-ylmethylcarbamoyl)ethanamide] had an IC50 of 19 µM.

The IC50 is the concentration at which inhibition is half-maximal. A low value points to greater potency in that assay.
